Assay results published in patent US11945822B2, “Pyrazolo-triazine and/or pyrazolo-pxrimidine derivatives as selective inhibitor of cyclin dependent kinase” (QURIENT CO., LTD., priority 2018, dated 2024).

Columns and labels:
CDK7/Cyclin H/MNAT1 = molecular target: T1, CDK7/Cyclin H/MNAT1 (Homo sapiens, UniProt P50613); assay: Enzymatic assay for CDK7 (FRET based LANCE Ultra kinase assay); format: biochemical; settings: for IC50: read-out: CDK7 enzymatic activity (IC50 range)
T1 construct: purchased Invitrogen PR6749B
Procedure: (§1) Enzymatic Binding Assay Protocol for CDK1, CDK2, CDK5 and CDK7
Inhibition activity of the respective compound on CDK kinase under Km value of ATP was tested in FRET based The LANCE® Ultra kinase assay (Perkin Elmer), which uses a ULight™-labeled peptide substrate and an appropriate Europium-labeled anti-phospho-antibody. […] After 1 min centrifugation at 1000 rpm, Purified CDKs/Cyclin complex were added following concentrations respectively. […] Data was analyzed using XL Fit software.

HCT116 = assay: Cellular HCT116 viability assay (CellTiter-Glo, 72 hours); format: cell-based; settings: Homo sapiens, HCT-116
Procedure: (§2) All cell lines were routinely tested for mycoplasma.
(§3) The effect of the CDK7 inhibitor to inhibit the growth of target cancer cells was evaluated through the 72 hours time period of viability assay. Briefly, the candidate cell line ware plated in 96 well plate at the following density of cells respectively. […] DMSO solvent without compound served as a control and final DMSO concentration less than 0.1%. After 72 hours of incubation at 37° C., 5% CO2 incubator, cells were analyzed for the viability using the CellTiter-Glo Luminescent Cell Viability Assay (Promega, Cat #G7570). All viability assays were performed in duplicate and Luminescence was read using an Envision (Perkin Elmer, USA). Data was analyzed using XLfit software.

H460 = assay: Cellular H460 viability assay (CellTiter-Glo, 72 hours); format: cell-based; settings: Homo sapiens, NCI-H460
Procedure: as §2, §3

CDK1/Cyclin B = molecular target: T2, CDK1/Cyclin B (Homo sapiens, UniProt P06493); assay: Enzymatic assay for CDK1 (FRET based LANCE Ultra kinase assay); format: biochemical; settings: read-out: CDK1 enzymatic activity (IC50 range)
T2 construct: purchased Invitrogen PR4768C
Procedure: as §1
(§4) Inhibition activity of the respective compound on CDK kinase under Km value of ATP was tested in FRET based The LANCE® Ultra kinase assay (Perkin Elmer), which uses a ULight™-labeled peptide substrate and an appropriate Europium-labeled anti-phospho-antibody. Test compounds were made with DMSO solutions, and then 4-fold serial dilutions for 8 doses were prepared using automated liquid handler (POD810, LABCYTE) and 80 nL/well of diluted compound solutions were added into the 384-well plates (Greiner, Cat #784075). And then 68 nM of ULight-MBP peptide (Perkin Elmer, Cat #TRF0109-M) and 5 ul/well of ATP (Sigma, Cat #A7699) were added to the plate. After 1 min centrifugation at 1000 rpm, Purified CDKs/Cyclin complex were added following concentrations respectively. 24 uM for CDK1/Cyclin B (Invitrogen, Cat #PR4768C), 22 uM for CDK2/Cyclin A (Invitrogen, Cat #PV6290), 10 uM for CDK5/p25 (Invitrogen, Cat #PR8543B) and […] for CDK7/Cyclin H/MNAT1 (Invitrogen, Cat #PR6749B) were added to the each corresponding plate for CDK1, CDK2, CDK5 and CDK7. Incubate at 23° C. for 60 min and then Eu-labeled anti-phospho-Myelin Basic Protein (PE, Cat #TRF0201-M) and EDTA (Invitrogen, Cat #15575038) mixture in Lance Detection Buffer (Perkin Elmer, Cat #CR97100) was added in each well. After additional incubation at 23° C. for 60 min, test articles were measured the fluorescence using Envision leader (Perkin Elmer, USA) [Laser as excitation light; […] as the first and the second emission filter]. Data was analyzed using XL Fit software.

CDK2/Cyclin A = molecular target: T3, CDK2/Cyclin A (Homo sapiens, UniProt P24941); assay: Enzymatic assay for CDK2 (FRET based LANCE Ultra kinase assay); format: biochemical; settings: read-out: CDK2 enzymatic activity (IC50 range)
T3 construct: purchased Invitrogen PV6290
Procedure: as §1, §4

MV4-11 = assay: Cellular MV4-11 viability assay (CellTiter-Glo, 72 hours); format: cell-based; settings: Homo sapiens
Procedure: as §2, §3

CDK5/p25 = molecular target: T4, CDK5/p25 (Homo sapiens, UniProt Q00535); assay: Enzymatic assay for CDK5 (FRET based LANCE Ultra kinase assay); format: biochemical; settings: read-out: CDK5 enzymatic activity (IC50 range)
T4 construct: purchased Invitrogen PR8543B
Procedure: as §1, §4

T2 sequence (P06493 whole entry): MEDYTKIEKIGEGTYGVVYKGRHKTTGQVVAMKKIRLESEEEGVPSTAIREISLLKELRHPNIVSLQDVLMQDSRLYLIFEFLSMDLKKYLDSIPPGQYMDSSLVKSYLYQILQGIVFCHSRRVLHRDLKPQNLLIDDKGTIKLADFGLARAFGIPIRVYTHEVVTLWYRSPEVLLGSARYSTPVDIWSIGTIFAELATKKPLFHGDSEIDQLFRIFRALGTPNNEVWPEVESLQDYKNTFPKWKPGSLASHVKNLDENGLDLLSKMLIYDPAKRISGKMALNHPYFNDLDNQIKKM
T2 sequence (P14635 whole entry partner): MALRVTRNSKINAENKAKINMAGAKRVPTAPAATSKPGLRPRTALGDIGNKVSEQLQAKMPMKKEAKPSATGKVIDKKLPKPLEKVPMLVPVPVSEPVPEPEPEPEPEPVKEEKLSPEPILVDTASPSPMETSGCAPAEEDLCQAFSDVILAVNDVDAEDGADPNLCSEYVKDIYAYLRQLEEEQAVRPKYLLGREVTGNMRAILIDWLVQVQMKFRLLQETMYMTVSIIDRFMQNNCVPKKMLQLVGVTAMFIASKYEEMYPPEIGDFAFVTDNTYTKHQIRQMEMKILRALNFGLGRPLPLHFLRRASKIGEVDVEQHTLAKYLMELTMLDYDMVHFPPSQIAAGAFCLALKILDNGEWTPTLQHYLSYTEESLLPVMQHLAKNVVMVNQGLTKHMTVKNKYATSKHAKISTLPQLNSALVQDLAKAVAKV
T4 sequence (Q00535 whole entry): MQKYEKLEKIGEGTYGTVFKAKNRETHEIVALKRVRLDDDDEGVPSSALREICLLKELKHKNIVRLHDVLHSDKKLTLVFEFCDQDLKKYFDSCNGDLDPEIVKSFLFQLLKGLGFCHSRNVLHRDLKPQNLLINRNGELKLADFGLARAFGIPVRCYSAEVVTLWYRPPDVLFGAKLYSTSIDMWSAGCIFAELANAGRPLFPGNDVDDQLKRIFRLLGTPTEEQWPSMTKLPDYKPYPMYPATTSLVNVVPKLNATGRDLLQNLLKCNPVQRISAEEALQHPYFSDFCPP
T4 sequence (Q15078 99-307 partner limits assumed): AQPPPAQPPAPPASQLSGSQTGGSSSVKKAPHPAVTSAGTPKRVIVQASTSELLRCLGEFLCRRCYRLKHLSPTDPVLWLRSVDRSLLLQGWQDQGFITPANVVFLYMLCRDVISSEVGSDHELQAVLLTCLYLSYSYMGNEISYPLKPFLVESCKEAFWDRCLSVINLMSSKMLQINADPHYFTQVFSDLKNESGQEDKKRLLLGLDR
T1 sequence (P50613 whole entry): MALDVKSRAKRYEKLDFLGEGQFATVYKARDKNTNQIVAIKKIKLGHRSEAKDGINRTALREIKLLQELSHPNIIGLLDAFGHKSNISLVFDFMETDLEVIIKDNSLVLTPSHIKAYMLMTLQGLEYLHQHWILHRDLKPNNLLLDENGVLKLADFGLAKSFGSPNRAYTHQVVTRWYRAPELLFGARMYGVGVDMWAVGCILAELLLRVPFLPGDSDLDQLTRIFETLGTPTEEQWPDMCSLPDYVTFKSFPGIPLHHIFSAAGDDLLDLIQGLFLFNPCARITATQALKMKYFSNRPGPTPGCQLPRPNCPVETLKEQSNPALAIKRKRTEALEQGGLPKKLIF
T1 sequence (P51946 whole entry partner): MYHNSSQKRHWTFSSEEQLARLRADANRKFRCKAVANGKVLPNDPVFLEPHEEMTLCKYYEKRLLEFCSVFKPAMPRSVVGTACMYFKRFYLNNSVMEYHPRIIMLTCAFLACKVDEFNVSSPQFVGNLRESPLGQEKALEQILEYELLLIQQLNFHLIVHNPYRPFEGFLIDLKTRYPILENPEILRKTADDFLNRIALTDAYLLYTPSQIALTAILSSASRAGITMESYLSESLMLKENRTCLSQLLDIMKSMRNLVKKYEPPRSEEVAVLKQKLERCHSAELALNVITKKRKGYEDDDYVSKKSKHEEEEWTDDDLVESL
T1 sequence (P51948 whole entry partner): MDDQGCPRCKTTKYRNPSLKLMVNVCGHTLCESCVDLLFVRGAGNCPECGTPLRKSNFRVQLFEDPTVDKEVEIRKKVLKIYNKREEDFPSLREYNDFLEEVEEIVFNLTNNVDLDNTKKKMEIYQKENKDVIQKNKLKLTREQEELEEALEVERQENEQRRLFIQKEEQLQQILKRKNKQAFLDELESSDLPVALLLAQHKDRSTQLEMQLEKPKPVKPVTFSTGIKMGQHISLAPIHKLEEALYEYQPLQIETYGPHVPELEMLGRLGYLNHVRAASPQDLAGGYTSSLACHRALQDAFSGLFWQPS

SMILES	CDK1/CDK7: Selectivity of CDK7 inhibition over CDK1 inhibition (CDK7/Cyclin H/MNAT1)	CDK2/CDK7: Selectivity of CDK7 inhibition over CDK2 inhibition (CDK7/Cyclin H/MNAT1)	IC50 (CDK7/Cyclin H/MNAT1) [nM]	IC50 (HCT116) [nM]	IC50 (H460) [nM]	IC50 (CDK1/Cyclin B) [nM]	IC50 (CDK2/Cyclin A) [nM]	IC50 (MV4-11) [nM]	IC50 (CDK5/p25) [nM]	CDK5/CDK7: Selectivity of CDK7 inhibition over CDK5 inhibition (CDK7/Cyclin H/MNAT1)
CC(C)c1cnn2c(NCc3ccccc3-n3cc(N4CCOCC4)cn3)nc(N3CCC(N)CC3)nc12 [Compound 156]	A (A=greater than 200 fold)	B (B=less than 200 fold, but greater than 20 fold)	< 100	< 1000	< 1000	> 1000	100 to 1000	< 1000	100 to 1000	B (B=less than 200 fold, but greater than 20 fold)
CNC(=O)c1cc2cn(-c3ccccc3CNc3nc(N4CCC(N)CC4)nc4c(C(C)C)cnn34)nc2cc1F [Compound 157]	A (A=greater than 200 fold)	A (A=greater than 200 fold)	< 100	< 1000	< 1000	> 1000	100 to 1000	< 1000	100 to 1000	B (B=less than 200 fold, but greater than 20 fold)
CC(C)c1cnn2c(NCc3ccccc3-n3cc4cc(C(=O)NC5CC5)ccc4n3)nc(N3CCC(N)CC3)nc12 [Compound 161]	A (A=greater than 200 fold)	B (B=less than 200 fold, but greater than 20 fold)	< 100	< 1000	< 1000	100 to 1000	100 to 1000	< 1000	100 to 1000	B (B=less than 200 fold, but greater than 20 fold)
CC(C)c1cnn2c(NCc3ccccc3-n3cc(N4CCN(C)CC4)cn3)nc(N3CCC(N)CC3)nc12 [Compound 179]	B (B=less than 200 fold, but greater than 20 fold)	B (B=less than 200 fold, but greater than 20 fold)	< 100	< 1000	< 1000	100 to 1000	100 to 1000	< 1000	100 to 1000	B (B=less than 200 fold, but greater than 20 fold)
CC(=O)NC1CCN(c2nc(NCc3c(Cl)cccc3-n3ccc(C(C)(C)O)n3)n3ncc(C(C)C)c3n2)CC1 [Compound 199]	A (A=greater than 200 fold)	A (A=greater than 200 fold)	< 100	< 1000	< 1000	> 1000	> 1000	1000 to 10000	> 1000	A (A=greater than 200 fold)
CC(C)c1cnn2c(NCc3c(Cl)cccc3-n3ccc(C(=O)N4CCOCC4)n3)nc(N3CCC(N)CC3)nc12 [Compound 200]	A (A=greater than 200 fold)	A (A=greater than 200 fold)	< 100	< 1000	< 1000	> 1000	> 1000	< 1000	> 1000	A (A=greater than 200 fold)
CC(C)c1cnn2c(NCc3c(Cl)cccc3-n3ccc(C(=O)NC4CCOCC4)n3)nc(N3CCC(N)CC3)nc12 [Compound 201]	A (A=greater than 200 fold)	A (A=greater than 200 fold)	< 100	< 1000	< 1000	> 1000	> 1000	< 1000	100 to 1000	B (B=less than 200 fold, but greater than 20 fold)
CC(C)c1cnn2c(NCc3ccccc3-c3ccc4ccccc4n3)cc(NCC3(O)CCNCC3)nc12 [Compound 208]	B (B=less than 200 fold, but greater than 20 fold)	C (C=less than 20 fold)	< 100	< 1000	< 1000	100 to 1000	< 100	< 1000	100 to 1000	B (B=less than 200 fold, but greater than 20 fold)

Now from value to compound, other results behind:

CDK1/CDK7: Selectivity of CDK7 inhibition over CDK1 inhibition (CDK7/Cyclin H/MNAT1)	CDK2/CDK7: Selectivity of CDK7 inhibition over CDK2 inhibition (CDK7/Cyclin H/MNAT1)	IC50 (CDK7/Cyclin H/MNAT1) [nM]	IC50 (HCT116) [nM]	IC50 (H460) [nM]	IC50 (CDK1/Cyclin B) [nM]	IC50 (CDK2/Cyclin A) [nM]	IC50 (MV4-11) [nM]	IC50 (CDK5/p25) [nM]	SMILES	CDK5/CDK7: Selectivity of CDK7 inhibition over CDK5 inhibition (CDK7/Cyclin H/MNAT1)
A (A=greater than 200 fold)	A (A=greater than 200 fold)	< 100	< 1000	< 1000	> 1000	> 1000	< 1000	> 1000	CC(C)c1cnn2c(NCc3c(Cl)cccc3-n3ccc(N4CCOCC4)n3)nc(N3CCC(N)CC3)nc12 [Compound 202]	A (A=greater than 200 fold)
A (A=greater than 200 fold)	A (A=greater than 200 fold)	< 100	< 1000	< 1000	> 1000	> 1000	< 1000	> 1000	CC(C)c1cnn2c(NCc3c(Cl)cccc3-n3cc(N4CCOCC4)cn3)nc(N3CCC(N)CC3)nc12 [Compound 203]	A (A=greater than 200 fold)
A (A=greater than 200 fold)	A (A=greater than 200 fold)	< 100	< 1000	< 1000	> 1000	> 1000	< 1000	> 1000	CC1CCN(c2cnn(-c3cccc(Cl)c3CNc3nc(N4CCC(N)CC4)nc4c(C(C)C)cnn34)c2)CC1 [Compound 204]	A (A=greater than 200 fold)
A (A=greater than 200 fold)	A (A=greater than 200 fold)	< 100	< 1000	< 1000	> 1000	> 1000	< 1000	100 to 1000	CC(C)c1cnn2c(NCc3c(Cl)cccc3-n3ccc(C(=O)NC4COC4)n3)nc(N3CCC(N)CC3)nc12 [Compound 205]	B (B=less than 200 fold, but greater than 20 fold)
A (A=greater than 200 fold)	A (A=greater than 200 fold)	< 100	< 1000	< 1000	> 1000	> 1000	< 1000	100 to 1000	CC(C)c1cnn2c(NCc3c(Cl)cccc3N3CCOCC3)nc(N3CCC(N)CC3)nc12 [Compound 206]	B (B=less than 200 fold, but greater than 20 fold)
A (A=greater than 200 fold)	A (A=greater than 200 fold)	< 100	< 1000	< 1000	> 1000	> 1000	< 1000	100 to 1000	CC(C)c1cnn2c(NCc3c(Cl)cccc3-n3ccc(CO)n3)nc(N3CCC(N)CC3)nc12 [Compound 207]	B (B=less than 200 fold, but greater than 20 fold)
